Starred links: 1 amine or outer side, 2 acyl side, 3 side chain; linkers in the order of their positions; H or OH if unused. Positions of bridges follow the written chain, without caps; N, C: chain ends. Non-standard residues stand in square brackets, D forms with d. Residues, ends and D or L forms follow the SMILES beside them. Groups on a side chain read outwards from the residue. *: point of attachment. CH3O(CH2CH2O)11CH2CH2CO = COCCOCCOCCOCCOCCOCCOCCOCCOCCOCCOCCOCCC(=O)*; PEG12 = NCCOCCOCCOCCOCCOCCOCCOCCOCCOCCOCCOCCOCCC(=O)O; Ala(1H-tetrazol-5-yl) = N[C@@H](Cc1nnn[nH]1)C(=O)O; C18 diacid = O=C(O)CCCCCCCCCCCCCCCCC(=O)*; Dip = N[C@H](C(=O)O)C(c1ccccc1)c1ccccc1; γGlu = O=C(O)[C@H](CCC(=O)[*:2])N[*:1]; Palmitoyl = CCCCCCCCCCCCCCCC(=O)*; β3hF = N[C@H](CC(=O)O)Cc1ccccc1; Isovaleryl = CC(C)CC(=O)*; AEEA = NCCOCCOCC(=O)O; X4 = O=C(CCC(F)(F)F)*; Ahx = NCCCCCC(=O)O
How the values were obtained:
ferroportin [1] = biological target: T1, ferroportin (Homo sapiens, UniProt Q9NP59); experiment: T47D cell-based ferroportin internalization assay in presence of 0.5% mouse serum albumin (MSA), AF647-conjugated detection peptide, flow cytometry; design: a human breast carcinoma adherent cell line which endogenously expresses ferroportin; host or cells: T47D; conditions: T47D cells, 1 hr incubation
T1 sequence (Q9NP59 1-571): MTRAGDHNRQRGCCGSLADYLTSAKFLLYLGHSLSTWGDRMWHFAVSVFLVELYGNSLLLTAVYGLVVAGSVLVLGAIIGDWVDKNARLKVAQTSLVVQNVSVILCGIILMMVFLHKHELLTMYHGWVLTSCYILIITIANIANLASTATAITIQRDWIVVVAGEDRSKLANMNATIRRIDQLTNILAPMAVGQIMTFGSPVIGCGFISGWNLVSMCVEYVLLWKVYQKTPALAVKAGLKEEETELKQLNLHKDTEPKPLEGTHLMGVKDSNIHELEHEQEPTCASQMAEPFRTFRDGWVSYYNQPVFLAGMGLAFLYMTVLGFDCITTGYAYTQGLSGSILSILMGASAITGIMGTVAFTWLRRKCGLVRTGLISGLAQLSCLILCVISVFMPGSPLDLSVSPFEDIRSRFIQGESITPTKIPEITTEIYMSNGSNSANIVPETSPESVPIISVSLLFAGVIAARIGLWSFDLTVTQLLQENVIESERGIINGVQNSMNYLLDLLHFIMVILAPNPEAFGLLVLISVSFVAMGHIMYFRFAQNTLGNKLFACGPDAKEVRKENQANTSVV
Procedure: The potency of the peptides in causing ferroportin internalization was evaluated in a T47D cell-based assay. […] In this internalization assay, the potency of the test peptides was evaluated in presence of serum albumin which is the main protein component in the blood. T47D cells were maintained in RPMI media (containing required amount of fetal bovine serum) and regularly sub-cultured. In preparation for the assay, the cells were seeded in 96-well plates at a density of 80-100 k cells per well in 100 ul volume and allowed to rest overnight. On the next day, test peptides were first prepared in dilution series (10-point series, starting concentration of ˜5 μM, typically 3-4×fold dilution steps), all with 0.5% mouse serum albumin (MSA purified from mouse serum; Sigma, A3139). The test peptide dilution series were allowed to incubate at room temperature for 30 min. Then the media was aspirated from the 96-well cell plate and test peptide dilution series were added. After 1 hr incubation, the media with test peptides was aspirated out and AF647-conjugated detection peptide was added at fixed concentration of 200 nM. The AF647-conjugated detection peptide was previously verified to bind to ferroportin and cause its internalization. The cells were washed again after a 2 hr incubation in preparation for flow cytometry analysis. The Median Fluorescence Intensity (MFI) of the AF647-positive population was measured (after removing dead cells and non-singlets from the analysis). The MFI values were used to generate a dose-response curve and obtain IC50 potencies for the test peptides. The IC50 potencies were calculated by using 4-parameter non-linear fitting function in Graphpad Prism (Table 2A).

ferroportin [2] = biological target: T1, ferroportin; experiment: FPN activity assay: internalization/degradation of ferroportin-GFP in stably transfected HEK293 cells, decrease in GFP fluorescence; format: cell-based; design: expressed in transfected cells; conditions: HEK293 cells stably expressing ferroportin-GFP, at least 18 hours incubation; read-out: FPN EC50

An IC50 (ferroportin [1]) of 1 to 10 nM and a DC50 (ferroportin [2]) of 10 to 100 nM were found for `CCCCCCCCCCCCCCCC(=O)NCCOCCOCCOCCOCCOCCOCCOCCOCCOCCOCCOCCOCCC(=O)NCCCC[C@@H]1NC(=O)[C@H]([C@@H](C)CC)NC(=O)[C@@H](NC(=O)[C@@H]2CCCN2C(=O)[C@@H](NC(=O)[C@H](Cc2c[nH]cn2)NC(=O)[C@@H](NC(=O)[C@H](Cc2nn[nH]n2)NC(=O)CC(C)C)[C@@H](C)O)C(c2ccccc2)c2ccccc2)CSSC[C@@H](C(N)=O)NC(=O)[C@@H](CCCCN)NC(=O)C[C@H](Cc2ccccc2)NC1=O` [Compd 1, Isovaleric Acid-[Tet1]-T-H-[Dpa]-P-[Cys]-I-[Lys(PEG12_Palm)]-[bhPhe]-[(D)Lys]-[Cys]-NH2] (Isovaleryl-[Ala(1H-tetrazol-5-yl)]TH[Dip]PCIK([PEG12-Palmitoyl])[β3hF][dK]C-NH2; disulfide 6-11) in this work.
An IC50 (ferroportin [1]) of 100 to 500 nM and a DC50 (ferroportin [2]) of 10 to 100 nM were found for `CC[C@H](C)[C@@H]1NC(=O)[C@@H](NC(=O)[C@@H]2CCCN2C(=O)[C@@H](NC(=O)[C@H](Cc2cncn2C)NC(=O)[C@@H](NC(=O)[C@H](CC2N=NN=N2)NC(=O)CC(C)C)[C@@H](C)O)C(c2ccccc2)c2ccccc2)CSSC[C@@H](C(N)=O)NC(=O)[C@@H](CCCCN)NC(=O)C[C@H](Cc2ccccc2)NC(=O)[C@H](CCCCNC(=O)COCCOCCNC(=O)COCCOCCNC(=O)CC[C@H](NC(=O)CCCCCCCCCCCCCCCCC(=O)O)C(=O)O)NC1=O` [Compd 8, Isovaleric Acid-[Tet1]-T-[His_3Me]-[Dpa]-P-[Cys]-I-[Lys(1PEG2_1PEG2_IsoGlu_C18_Diacid)]-[bhPhe]-[(D)Lys]-[Cys]-NH2] in this work.
An IC50 (ferroportin [1]) of 100 to 500 nM and a DC50 (ferroportin [2]) of 10 to 100 nM were found for `CC[C@H](C)[C@@H]1NC(=O)[C@@H](NC(=O)[C@@H]2CCCN2C(=O)[C@@H](NC(=O)[C@H](Cc2c[nH]cn2)NC(=O)[C@@H](NC(=O)[C@H](Cc2nn[nH]n2)NC(=O)CC(C)C)[C@@H](C)O)C(c2ccccc2)c2ccccc2)CSSC[C@H](C(N)=O)NC(=O)C[C@H](Cc2ccccc2)NC(=O)[C@H](CCCCNC(=O)COCCOCCNC(=O)COCCOCCNC(=O)CC[C@H](NC(=O)CCCCCCCCCCCCCCCCC(=O)O)C(=O)O)NC1=O` [Compd 36, Isovaleric Acid-[Tet1]-T-H-[Dpa]-P-[Cys]-I-[Lys(1PEG2_1PEG2_IsoGlu_C18_Diacid)]-[bhPhe]-d[Cys]-NH2] (Isovaleryl-[Ala(1H-tetrazol-5-yl)]TH[Dip]PCIK([AEEA-AEEA-γGlu-C18 diacid])[β3hF][dC]-NH2; disulfide 6-10) in this work.
An IC50 (ferroportin [1]) of 10 to 100 nM and a DC50 (ferroportin [2]) of 10 to 100 nM were found for `CC[C@H](C)[C@@H]1NC(=O)[C@@H](NC(=O)[C@@H]2CCCN2C(=O)[C@@H](NC(=O)[C@H](Cc2c[nH]cn2)NC(=O)[C@@H](NC(=O)[C@H](Cc2nn[nH]n2)NC(=O)CC(C)C)[C@@H](C)O)C(c2ccccc2)c2ccccc2)CSSC[C@@H](C(N)=O)NC(=O)[C@@H](CCCCN)NC(=O)C[C@H](Cc2ccccc2)NC(=O)[C@H](CCCCNC(=O)COCCOCCNC(=O)COCCOCCNC(=O)CC[C@H](NC(=O)CCCCCCCCCCCCCCCCC(=O)O)C(=O)O)NC1=O` [Compd 40, Isovaleric Acid-[Tet1]-T-H-[Dpa]-P-[Cys]-I-[Lys(1PEG2_1PEG2_IsoGlu_C18_Diacid)]-[bhPhe]-[(D)Lys]-[Cys]-NH2] (Isovaleryl-[Ala(1H-tetrazol-5-yl)]TH[Dip]PCIK([AEEA-AEEA-γGlu-C18 diacid])[β3hF][dK]C-NH2; disulfide 6-11) in this work.
An IC50 (ferroportin [1]) of 100 to 500 nM and a DC50 (ferroportin [2]) of 10 to 100 nM were found for `CC[C@H](C)[C@@H]1NC(=O)[C@@H](NC(=O)[C@@H]2CCCN2C(=O)[C@@H](NC(=O)[C@H](Cc2c[nH]cn2)NC(=O)[C@@H](NC(=O)[C@H](Cc2nn[nH]n2)NC(=O)CC(C)C(F)(F)F)[C@@H](C)O)C(c2ccccc2)c2ccccc2)CSSC[C@@H](C(N)=O)NC(=O)[C@@H](CCCCN)NC(=O)C[C@H](Cc2ccccc2)NC(=O)[C@H](CCCCNC(=O)COCCOCCNC(=O)COCCOCCNC(=O)CC[C@H](NC(=O)CCCCCCCCCCCCCCCCC(=O)O)C(=O)O)NC1=O` (some centres unmarked) [Compd 45, Butyric_Acid_3CF3-[Tet1]-T-H-[Dpa]-P-[Cys]-I-[Lys(1PEG2_1PEG2_IsoGlu_C18_Diacid)]-[bhPhe]-[(D)Lys]-[Cys]-NH2] in this work.
An IC50 (ferroportin [1]) of 10 to 100 nM and a DC50 (ferroportin [2]) of 10 to 100 nM were found for `CC[C@H](C)[C@@H]1NC(=O)[C@@H](NC(=O)[C@@H]2CCCN2C(=O)[C@@H](NC(=O)[C@H](Cc2c[nH]cn2)NC(=O)[C@@H](NC(=O)[C@H](Cc2nn[nH]n2)NC(=O)C(C)(C)Br)[C@@H](C)O)C(c2ccccc2)c2ccccc2)CSSC[C@@H](C(N)=O)NC(=O)[C@@H](CCCCN)NC(=O)C[C@H](Cc2ccccc2)NC(=O)[C@H](CCCCNC(=O)COCCOCCNC(=O)COCCOCCNC(=O)CC[C@H](NC(=O)CCCCCCCCCCCCCCCCC(=O)O)C(=O)O)NC1=O` [Compd 46, Propanoic_Acid_2Me2Br-[Tet1]-T-H-[Dpa]-P-[Cys]-I-[Lys(1PEG2_1PEG2_IsoGlu_C18_Diacid)]-[bhPhe]-[(D)Lys]-[Cys]-NH2] in this work.
An IC50 (ferroportin [1]) of 100 to 500 nM and a DC50 (ferroportin [2]) of 10 to 100 nM were found for `CC[C@H](C)[C@@H]1NC(=O)[C@@H](NC(=O)[C@@H]2CCCN2C(=O)[C@@H](NC(=O)[C@H](Cc2c[nH]cn2)NC(=O)[C@@H](NC(=O)[C@H](Cc2nn[nH]n2)NC(=O)CCC(F)(F)F)[C@@H](C)O)C(c2ccccc2)c2ccccc2)CSSC[C@@H](C(N)=O)NC(=O)[C@@H](CCCCN)NC(=O)C[C@H](Cc2ccccc2)NC(=O)[C@H](CCCCNC(=O)COCCOCCNC(=O)COCCOCCNC(=O)CC[C@H](NC(=O)CCCCCCCCCCCCCCCCC(=O)O)C(=O)O)NC1=O` [Compd 47, TriF_Butyric_Acid-[Tet1]-T-H-[Dpa]-P-[Cys]-I-[Lys(1PEG2_1PEG2_IsoGlu_C18_Diacid)]-[bhPhe]-[(D)Lys]-[Cys]-NH2] (X4-[Ala(1H-tetrazol-5-yl)]TH[Dip]PCIK([AEEA-AEEA-γGlu-C18 diacid])[β3hF][dK]C-NH2; disulfide 6-11) in this work.
An IC50 (ferroportin [1]) of 10 to 100 nM and a DC50 (ferroportin [2]) of 10 to 100 nM were found for `CCCC(=O)N[C@@H](Cc1nn[nH]n1)C(=O)N[C@H](C(=O)N[C@@H](Cc1c[nH]cn1)C(=O)N[C@H](C(=O)N1CCC[C@H]1C(=O)N[C@H]1CSSC[C@@H](C(N)=O)NC(=O)[C@@H](CCCCN)NC(=O)C[C@H](Cc2ccccc2)NC(=O)[C@H](CCCCNC(=O)COCCOCCNC(=O)COCCOCCNC(=O)CC[C@H](NC(=O)CCCCCCCCCCCCCCCCC(=O)O)C(=O)O)NC(=O)[C@H]([C@@H](C)CC)NC1=O)C(c1ccccc1)c1ccccc1)[C@@H](C)O` [Compd 49, Butyric_Acid-[Tet1]-T-H-[Dpa]-P-[Cys]-I-[Lys(1PEG2_1PEG2_IsoGlu_C18_Diacid)]-[bhPhe]-[(D)Lys]-[Cys]-NH2] in this work.
An IC50 (ferroportin [1]) of 1 to 10 nM and a DC50 (ferroportin [2]) of 10 to 100 nM were found for `CCCCCCCCCCCCCCCC(=O)NCCCCCC(=O)NCCCC[C@@H]1NC(=O)C[C@H](Cc2ccccc2)NC(=O)[C@@H](CCCCNC(=O)CCOCCOCCOCCOCCOCCOCCOCCOCCOCCOCCOCCOC)NC(=O)[C@H]([C@@H](C)CC)NC(=O)[C@@H](NC(=O)[C@@H]2CCCN2C(=O)[C@@H](NC(=O)[C@H](Cc2c[nH]cn2)NC(=O)[C@@H](NC(=O)[C@H](Cc2nn[nH]n2)NC(=O)CC(C)C)[C@@H](C)O)C(c2ccccc2)c2ccccc2)CSSC[C@@H](C(N)=O)NC(=O)[C@@H](CCCCNC(=O)CCOCCOCCOCCOCCOCCOCCOCCOCCOCCOCCOCCOC)NC1=O` [Compd 50, Isovaleric Acid-[Tet1]-T-H-[Dpa]-P-[Cys]-I-[(DLys(PEG11_OMe-[bhPhe]-[Lys(Ahx_Palm)]-[(D)Lys(PEG11_OMe)]-[Cys]-NH2] (Isovaleryl-[Ala(1H-tetrazol-5-yl)]TH[Dip]PCI[dK](CH3O(CH2CH2O)11CH2CH2CO)[β3hF]K([Ahx-Palmitoyl])[dK](CH3O(CH2CH2O)11CH2CH2CO)C-NH2; disulfide 6-12) in this work.
An IC50 (ferroportin [1]) of 10 to 100 nM and a DC50 (ferroportin [2]) of 10 to 100 nM were found for `CC[C@H](C)[C@@H]1NC(=O)[C@@H](NC(=O)[C@@H]2CCCN2C(=O)[C@@H](NC(=O)[C@H](Cc2cnc[nH]2)NC(=O)[C@@H](NC(=O)[C@H](CC2N=NN=N2)NC(=O)CC(C)C)[C@@H](C)O)C(c2ccccc2)c2ccccc2)CSSC[C@@H](C(N)=O)NC(=O)[C@@H](CCCCN)NC(=O)C[C@H](Cc2ccccc2)NC(=O)[C@H](CCCCNC(=O)COCCOCCNC(=O)COCCOCCNC(=O)CCCCCNC(=O)CCCCCCCCCCCCCCCCC(=O)O)NC1=O` [Compd 51, Isovaleric Acid-[Tet1]-T-H-[Dpa]-P-[Cys]-I-[Lys(1PEG2_1PEG2_Ahx_C18_Diacid)]-[bhPhe]-[(D)Lys]-[Cys]-NH2] in this work.

Reference: US20240226225A1 (Protagonist Therapeutics, Inc., priority 2021, published 2024)
